Earlier results on 2 substances are cited in PMC9915632 (International Journal of Molecular Sciences, 2023).

Non-standard residues stand in square brackets, D forms with d. Orn = NCCC[C@H](N)C(=O)O

For series [1] the following is noted: ref [22], cited from earlier work.
The next series has as its system SARS-CoV-2. Conditions: in vitro; ref [16]; cited from earlier work.
The conditions of series [2]: ref [15]; cited from earlier work.

As for “For-Val-Gly-D-Leu-Ala-D-Val-Val-D-Val-Trp-D-Leu-Trp-D-Leu-Trp-D-Leu-Trp-Gly-ol [Gramicidin D, FDA-approved antimicrobial peptide drug, PubChem CID 45267103]”, the hemolysis entry in series [1] (limits use to topical application) was “hemolytic side effect”. Further, the tolerability result in series [1] (topical antibiotic) is “well-tolerated antibiotic”.

Turning to “cyclo(L[dF]PV[Orn]L[dF]PV[Orn]) [Gramicidin S]”, in the series on SARS-CoV-2, the anti-SARS-CoV-2 activity entry is “anti-SARS-CoV-2 activity in vitro”. For the same substance, in series [2], the “antibacterial and fungicidal activity” value was “potent antibacterial and fungicidal activity”.
